Laboratory results as given in patent US10604555B2, “GIP derivatives and uses thereof” (priority 2018, dated 2020).
Like-named read-outs stand apart in the source and are kept apart here. Side-chain parts run from the residue outwards. [ ]: non-standard residue; d: D form. The star is where a group is joined. C20 diacid = O=C(O)CCCCCCCCCCCCCCCCCCC(=O)*; Nle = CCCC[C@H](N)C(=O)O; AEEA = NCCOCCOCC(=O)O; Aib = CC(C)(N)C(=O)O

What was measured:
[1] = ThT fibrillation assay (physical stability); type: physicochemical; conditions: 250 μM, pH 7.4, 37° C., 45 hours of incubation
Protocol: The Thioflavin T assay was performed as outlined in Schlein (2017), AAPS J, 19(2), 397-408.
This has traditionally been measured by visual inspection of the sample. However, that kind of measurement is very cumbersome and depending on the observer. Therefore, the application of a small molecule indicator probe is much more advantageous. Thioflavin T (ThT) is such a probe and has a distinct fluorescence signature when binding to fibrils [Naiki et al. (1989) Anal. Biochem. 177, 244-249; LeVine (1999) Methods. Enzymol. 309, 274-284].
The time course for fibril formation can be described by a sigmoidal curve with the following expression [Nielsen et al. (2001) Biochemistry 40, 6036-6046]:
Here, F is the ThT fluorescence at the time t. The constant t0 is the time needed to reach 50% of maximum fluorescence. The two important parameters describing fibril formation are the lag-time calculated by t0−2τ and the apparent rate constant kapp 1/τ.
Few of those intermediates nucleate to form a template onto which further intermediates may assembly and the fibrillation proceeds. The lag-time corresponds to the interval in which the critical mass of nucleus is built up and the apparent rate constant is the rate with which the fibril itself is formed.
Samples are prepared freshly before each assay. The drug substance was solved with 250 μM of the GIP derivative in 8 mM phosphate, 14 mg/mL propylene glycol, 58 mM phenol, pH 7.4. The pH of the sample was adjusted to the desired value using appropriate amounts of concentrated NaOH and HCl. Thioflavin T was added to the samples from a stock solution in H2O to a final concentration of 1 μM.
Sample aliquots of 200 μl were placed in each well of a 96 well microtiter plate (Packard OptiPlate™-96, white polystyrene). Four replica of each sample (corresponding to one test condition) was placed in one column of wells. The plate was sealed with Scotch Pad (Qiagen).
Incubation, shaking and measurement of the ThT fluorescence emission were done in a Fluoroskan Ascent FL fluorescence platereader (Thermo Labsystems). […] Fluorescence measurement was done using excitation through a 444 nm filter and measurement of emission through a 485 nm filter.
Each run was initiated by incubating the plate at the assay temperature for 10 min. The plate was measured every 20 minutes for a desired period of time. Between each measurement, the plate was shaken and heated as described.
After completion of the ThT assay the replica of each sample was pooled and centrifuged at 20000 rpm for 30 minutes at 18° C. The supernatant was filtered through a 0.22 μm filter and an aliquot was transferred to a HPLC vial. The concentration of the filtered sample relative to the initial sample (in percentage) was reported as the recovery.
The measurement points were saved in Microsoft Excel format for further processing and curve drawing and fitting was performed using GraphPad Prism. […] The data points were a mean of the four replica and shown with standard deviation error bars. Only data obtained in the same experiment (i.e. samples on the same plate) were presented in the same graph ensuring a relative measure of fibrillation between experiments.
The data set may be fitted to Eq. (1).

[2] = Chemical stability: HMWP formation by SEC-MS; type: physicochemical; conditions: 37° C., 4 weeks, 250 μM, pH 7.4
Protocol: The aim of this study is to determine the chemical stability of GIP derivative compositions. As a measure of stability of the GIP derivative composition, the formation of high molecular weight peptide formation (% HMWP) as a function of time was analysed by size-exclusion chromatography (SEC-MS). Further, the purity loss of the GIP derivative compositions was measured by LCMS. Samples for chemical stability assays were freshly prepared before each assay. […] The pH of the sample was adjusted to the desired value using appropriate amounts of concentrated NaOH and HCl. […] Formation of covalent oligomers (HMWPs) was analysed and identified by a SEC-MS method. […] The LC system was coupled to both a TUV detector operated at 215 nm, 10 Hz and a high resolution QToF mass spectrometer from Waters (Synapt G2S) operated in positive ion mode and m/z range of 100 to 4000 with normal resolution setting. Lock mass correction against Leu-Enkephalin was done every 31 sec. Spectra were processed in MassLynx version 4.1 and MaxEnt deconvoluted.

[3] = Chemical stability: purity loss by LCMS; type: physicochemical; conditions: 37° C., 4 weeks, 250 μM, pH 7.4
Protocol: The aim of this study is to determine the chemical stability of GIP derivative compositions. As a measure of stability of the GIP derivative composition, the formation of high molecular weight peptide formation (% HMWP) as a function of time was analysed by size-exclusion chromatography (SEC-MS). Further, the purity loss of the GIP derivative compositions was measured by LCMS. Samples for chemical stability assays were freshly prepared before each assay. […] The pH of the sample was adjusted to the desired value using appropriate amounts of concentrated NaOH and HCl. […] The column oven was kept at 55° C. […] The solvents were pumped from a binary solvent manager system and mixed on the high pressure side in a mixer with a volume of 50 μl. The gradient and flow can be seen in table 4: [table] A Flow-through-needle auto sampler at 8° C. was used to inject 1 μl of each sample. The effluent passed through a tunable UV detector (TUV) tuned to 215 nm. The outlet from the UV detector passed to the electrospray source of the mass spectrometer. The capillary was held at 3 kV and dry nitrogen gas was purged at a flow of 750 I/h and a temperature of 250° C. The source block was kept at 120° C. and the large bore cone was flushed with nitrogen at 50 I/h with standard electrode potentials on the rest of the instrument. The MS was operated in high resolution mode with a nominal resolution of 35000. The ToF analyser was operated in ADC mode with an m/z window from 100-2000.

[4] = cited from earlier work
[5] = type: physicochemical; conditions: pH 7.4

| ThT Assay Lag time [1] [h] | HMWP formation (%/month) [2] [%/month] | Purity loss (%/month) [3] [%/month] | Molecule | half-life of hGIP(1-42) measured in man ([4]; Deacon et al., J. Clin. Endocrinol. & Metab.) [min] | half-life of hGIP(1-42) measured in man ([4]; Meier et al., Diabetes) | solubility at given pH [5] |
| --- | --- | --- | --- | --- | --- | --- |
| 0.33 | 2.0 | 73.1 | CC[C@H](C)[C@H](NC(=O)[C@H](CO)NC(=O)[C@H](Cc1ccc(O)cc1)NC(=O)[C@H](CC(=O)O)NC(=O)[C@H](CO)NC(=O)[C@@H](NC(=O)[C@H](Cc1ccccc1)NC(=O)[C@@H](NC(=O)CNC(=O)[C@H](CCC(=O)O)NC(=O)[C@H](C)NC(=O)[C@@H](N)Cc1ccc(O)cc1)[C@@H](C)O)[C@@H](C)CC)C(=O)N[C@@H](C)C(=O)N[C@@H](CCSC)C(=O)N[C@@H](CC(=O)O)C(=O)N[C@@H](CCCCN)C(=O)N[C@H](C(=O)N[C@@H](Cc1c[nH]cn1)C(=O)N[C@@H](CCC(N)=O)C(=O)N[C@@H](CCC(N)=O)C(=O)N[C@@H](CC(=O)O)C(=O)N[C@@H](Cc1ccccc1)C(=O)N[C@H](C(=O)N[C@@H](CC(N)=O)C(=O)N[C@@H](Cc1c[nH]c2ccccc12)C(=O)N[C@@H](CC(C)C)C(=O)N[C@@H](CC(C)C)C(=O)N[C@@H](C)C(=O)N[C@@H](CCC(N)=O)C(=O)N[C@@H](CCCCN)C(=O)NCC(=O)N[C@@H](CCCCN)C(=O)N[C@@H](CCCCN)C(=O)N[C@@H](CC(N)=O)C(=O)N[C@@H](CC(=O)O)C(=O)N[C@@H](Cc1c[nH]c2ccccc12)C(=O)N[C@@H](CCCCN)C(=O)N[C@@H](Cc1c[nH]cn1)C(=O)N[C@@H](CC(N)=O)C(=O)N[C@H](C(=O)N[C@H](C(=O)N[C@@H](CCC(N)=O)C(=O)O)[C@@H](C)O)[C@@H](C)CC)C(C)C)[C@@H](C)CC [hGIP(1-42), reference compound] | ~7 | about 5 min | – |
| – | – | – | N{1}-acetyl,N{Epsilon-24}-[2-[2-[2-[[2-[2-[2-[[4-[(19-carboxynonadecanoylamino)methyl]cyclohexanecarbonyl]amino]ethoxy]ethoxy]acetyl]amino]ethoxy]ethoxy]acetyl]-[D-Tyr1,Aib2,Nle14,Arg18,Lys24,Pro31]-hGIP(1-31) amide (Ac-[dY][Aib]EGTFISDYSIA[Nle]DKIRQQDFVK([AEEA-AEEA-4‑(aminomethyl)cyclohexanecarbonyl-C20 diacid])WLLAQKP-NH2) [Compound 44] | – | – | **Compound not soluble at given pH. |
